Laboratory results: US20130324412A1, “N-ALKOXYAMIDES OF 6-(SUBSTITUTED PHENYL)-4-AMINOPICOLINATES AND 2-(SUBSTITUTED PHENYL)-6-AMINO-4-PYRIMIDINECARBOXYLATES AND THEIR USE AS SELECTIVE HERBICIDES FOR CROPS” (DOW AGROSCIENCES LLC, priority 2009, published 2013)

Columns and labels:
Assay type in all cases: in vivo
[1] = test system: wild buckwheat (Polygonum convululus); test: Postemergence herbicidal activity in corn, wild buckwheat; settings: corn test, visual rating after 21 d, probit analysis, dose to kill or control 80 percent
Protocol: (§1) Seeds of corn and the desired weed species were planted in Sun Gro MetroMix 360 planting mixture, which typically has a pH of 6.0 to 6.8 and an organic matter content of about 30 percent, in plastic pots with a surface area of 95 cm^2. When required to ensure good germination and healthy plants, a fungicide treatment and/or other chemical or physical treatment was applied. The plants were grown for 7-21 d in a greenhouse with an approximate 15-h photoperiod which was maintained at about 23-29° C. during the day and 22-28° C. during the night. Nutrients and water were added on a regular basis and supplemental lighting was provided with overhead metal halide 1000-Watt lamps as necessary. The corn plants were utilized for testing when they reached the second true leaf stage. The weed species were utilized at the first or second true leaf stage.
(§2) A weighed amount, determined by the highest rate to be tested, of each test compound was dissolved in 4 mL of a 97:3 v/v mixture of acetone and DMSO to obtain concentrated stock solutions. […] The concentrated stock solutions obtained were diluted with 20 mL of an aqueous mixture containing acetone, water, isopropyl alcohol, DMSO, Atplus 411F crop oil concentrate, and Triton X-155 surfactant in a 48.5:39:10:1.5:1.0:0.02 v/v ratio to obtain spray solutions containing the highest application rates. […]
(§3) The treated plants and control plants were placed in a greenhouse as described above and watered by sub-irrigation to prevent wash-off of the test compounds. After 21 d, the condition of the test plants as compared with that of the untreated plants was determined visually and scored on a scale of 0 to 100 percent where 0 corresponds to no injury and 100 corresponds to complete kill. […]

[2] = test system: lambsquarters (Chenopodium album); test: Postemergence herbicidal activity in corn, lambsquarters; settings: corn test, visual rating after 21 d, probit analysis, dose to kill or control 80 percent
Protocol: as §1, §2, §3

[3] = test system: pigweed, redroot (Amaranthus retroflexus); test: Postemergence herbicidal activity in corn, redroot pigweed; settings: corn test, visual rating after 21 d, probit analysis, dose to kill or control 80 percent
Protocol: as §1, §2, §3

[4] = test system: lambsquarters (Chenopodium album); test: General postemergence herbicidal activity, lambsquarters; settings: post-emergence, 336 h, 70 g ai/ha, postemergence, after 14 d, 0 = no injury, 100 = complete kill, read-out: CHEAL % Visual Injury
In short: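 Greenhouse plants at first to second true leaf stage sprayed overhead at 187 L/ha in acetone/DMSO with crop oil concentrate and surfactant, at a high rate plus ½× to 1/16× serial dilutions. Injury rated visually after 14 d against solvent-blank controls, 0 (none) to 100% (complete kill).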

Row | SMILES | POLCO GR80 [1] [g ai/ha] | CHEAL GR80 [2] [g ai/ha] | AMARE GR80 [3] [g ai/ha] | pest or weed control at 70 g/ha [4] [%]
1 | CONC(=O)c1nc(-c2ccc(Cl)c(OC)c2F)cc(N)c1Cl [Compound 2, 4-Amino-3-chloro-6-(4-chloro-2-fluoro-3-methoxyphenyl)-N-methoxypicolinamide] | 6 | <4 | <4 | 100
2 | COc1c(Cl)ccc(-c2cc(N)c(Cl)c(C(=O)NOCC(C)C)n2)c1F [Compound 1, 4-amino-3-chloro-6-(4-chloro-2-fluoro-3-methoxyphenyl)-N-(2-methylpropoxy)picolinamide] | <4 | <4 | 14 | 100
